Results taken from patent US9610277B2, “Formula comprising a hypolipidemic agent” (Cadila Healthcare Limited, priority 2013, dated 2017).
“Also recorded” adds a separate entry of the source.

Experiments:
Type in all cases: physicochemical
[1] = Stability of API at 40° C./75% RH (percent purity)
Excerpt: (§1) Therefore the inventors of the present invention have tried to develop a stable formulation of API such that the API is protected and cannot absorb moisture.

[2] = Moisture absorption of API at 40° C./75% RH (water by KF)
Excerpt: as §1

[3] = Sulfoxide impurity level over six months
Excerpt: Further, one of the impurity (sulfoxide) which was being generated in API increases from 0.17% to 0.76% over a period of 6 months. […] Therefore stabilization of compositions containing compounds of formula (I) can be made by maintaining the microenvironmental pH of composition above 7 by using suitable alkalinizers. Use of a suitable antioxidant(s) and chelating agent(s) further stabilizes the formulation.

[4] = pH degradation of API in standard pH buffers (sulfoxide impurity at 0.3 RRT); conditions: different standard pH buffers, after 24 hours
Method: FIG. 1: Percentage of sulfoxide impurity level (0.3 RRT) at different pH after 24 hours.
When the pH was modulated by addition of alkalinizer(s) then sulfoxide impurity level in API is restricted.
About 1% w/v aqueous dispersion of tablets was used for pH measurement. pH degradation can be seen with API when kept in different standard pH buffers.

## CCO[C@@H](Cc1ccc(OCCn2c(C)ccc2-c2ccc(SC)cc2)cc1)C(=O)O [API, Saroglitazar Magnesium]
[1]; 1 Month
  Percent Purity: 98.10%
[1]; 2 Month
  Percent Purity: 97.93%
[1]; 3 Month
  Percent Purity: 97.17%
[1]; Initial
  Percent Purity: 98.48%
[2]; 1 Month
  Water By KF: 1.17%
[2]; 2 Month
  Water By KF: 2.32%
[2]; 3 Month
  Water By KF: 2.57%
[2]; Initial
  Water By KF: 0.62%
[3]; after 6 months
  sulfoxide impurity level: 0.76%
[3]; start of the six month period
  sulfoxide impurity level: 0.17%
[4]
  Percentage individual impurity at 0.3 RRT (Sulphoxide impurity): restricted; also recorded: decreases as the solution of pH increases above pH 7
